From patent US20050004163A1, “3-(diarylmethylene)-8-azabicyclo[3.2.1]octane derivatives” (priority 2000, published 2005) come the findings set out here.

For the first experiment, the target named is T1, μ-opioid receptor (Rattus norvegicus, UniProt P33535).
T1 construct: the forebrains are homogenized in Tris buffer in a Teflon®-glass homogenizer; from tissue; host or cells: forebrain of male Wistar rats (particulate membrane preparation)
T1 sequence (P33535 whole entry): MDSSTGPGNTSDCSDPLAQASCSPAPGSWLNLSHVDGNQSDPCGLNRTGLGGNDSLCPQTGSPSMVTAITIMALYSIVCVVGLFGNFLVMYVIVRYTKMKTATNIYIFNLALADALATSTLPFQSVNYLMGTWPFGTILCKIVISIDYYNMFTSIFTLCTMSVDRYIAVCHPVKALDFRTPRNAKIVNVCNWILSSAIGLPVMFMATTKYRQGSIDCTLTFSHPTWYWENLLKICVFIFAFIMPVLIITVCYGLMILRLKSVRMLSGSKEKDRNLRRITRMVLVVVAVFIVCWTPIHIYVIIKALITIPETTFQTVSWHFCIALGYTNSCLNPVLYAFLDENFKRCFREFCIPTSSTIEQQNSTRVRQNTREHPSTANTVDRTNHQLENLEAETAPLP
Put plainly: Rat brain μ-opioid receptor binding assay ([3H]DAMGO). The settings on record: 10 nM solutions of the compounds, read-out: MOR binding Ki. How it is done: Rat Brain μ-Opioid Receptor Binding Assay
Male, Wistar rats (150-250 g, VAF, Charles River, Kingston, N.Y.) are killed by cervical dislocation and their brains removed and placed immediately in ice cold Tris HCl buffer (50 mM, pH 7.4). The forebrains are separated from the remainder of the brain by a coronal transection, beginning dorsally at the colliculi and passing ventrally through the midbrain-pontine junction. After dissection, the forebrains are homogenized in Tris buffer in a Teflon®-glass homogenizer. The homogenate is diluted to a concentration of 1 g of forebrain tissue per 100 mL Tris buffer and centrifuged at 39,000×G for 10 min. The pellet is resuspended in the same volume of Tris buffer with several brief pulses from a Polytron homogenizer. This particulate preparation is used for the μ-opioid binding assays. […] The tubes and filters are rinsed three times with 4 mL of 10 mM HEPES (pH 7.4) and the radioactivity associated with the filter circles determined using Formula 989 scintillation fluid (New England Nuclear, Boston, Mass.) in a scintillation counter.
The data are used to calculate either the % inhibition compared to control binding (when only a single concentration of test compound is evaluated) or a Ki value (when a range of concentrations is tested).
% Inhibition is calculated as follows: [formula]
Ki value is calculated using the LIGAND (Munson, P. J. and Rodbard, D., Anal. Biochem. 107: 220-239, 1980) data analysis program.
Broadly, the Ki is a dissociation constant, usually derived from enzyme kinetics or from competition with a known ligand. `CCNC(=O)c1ccc(C(=C2CC3CCC(C2)N3Cc2ccoc2)c2ccc([N+](=O)[O-])cc2)cc1` [Cpd 126]: the Ki was 1.45 nM.

In the case of `CCNC(=O)c1ccc(C(=C2CC3CCC(C2)N3CCc2ccccc2)c2ccc(CCC(=O)O)cc2)cc1` [Cpd 135], the Ki amounted to 318 nM.

In the case of `CCNC(=O)c1ccc(C(=C2CC3CCC(C2)N3CC=C(C)C)c2nnn[nH]2)cc1` [Cpd 147], the Ki came to 109 nM.

`CCNC(=O)c1ccc(C(=C2CC3CCC(C2)N3C(=O)OCC)c2ccc(O)c(OC)c2)cc1` [Cpd 172, 3-[(4-Ethylcarbamoyl-phenyl)-(4-hydroxy-3-methoxy-phenyl)-methylene]-8-aza-bicyclo[3.2.1]octane-8-carboxylic acid ethyl ester]: the Ki is 713 nM.

`CCNC(=O)c1ccc(C(=C2CC3CCC(C2)N3C(=O)OCC)c2cc(C)c(O)c(C)c2)cc1` [Cpd 173, 3-[(4-Ethylcarbamoyl-phenyl)-(4-hydroxy-3,5-dimethyl-phenyl)-methylene]-8-aza-bicyclo[3.2.1]octane-8-carboxylic acid ethyl ester]: the Ki was found to be 2070 nM.

Still in this experiment, the particulars now being: MOR binding Ki.
Compound `CCNC(=O)c1ccc(C(=C2CC3CCC(C2)N3Cc2ccco2)c2ccc(CCC(=O)O)cc2)cc1` [Cpd 125] registered a Ki of 47.6 nM.

Consider `CCNC(=O)c1ccc(C(=C2CC3CCC(C2)N3Cc2ccoc2)c2ccc(CCC(=O)O)cc2)cc1` [Cpd 127], for which the Ki was determined as 2.96 nM.

The compound `CCNC(=O)c1ccc(C(=C2CC3CCC(C2)N3Cc2ccsc2)c2ccc([N+](=O)[O-])cc2)cc1` [Cpd 128] displayed a Ki of 4.27 nM.

`CCNC(=O)c1ccc(C(=C2CC3CCC(C2)N3Cc2ccsc2)c2ccc(CCC(=O)O)cc2)cc1` [Cpd 129]: the affinity corresponds to a Ki of 6.73 nM.

The compound `CCNC(=O)c1ccc(C(=C2CC3CCC(C2)N3Cc2nccs2)c2ccc([N+](=O)[O-])cc2)cc1` [Cpd 130] registered a Ki of 221 nM.

Consider `CCNC(=O)c1ccc(C(=C2CC3CCC(C2)N3Cc2nccs2)c2ccc(CC(N)C(=O)O)cc2)cc1` (centres unmarked) [Cpd 131], for which the Ki was found to be 152 nM.

`CCNC(=O)c1ccc(C(=C2CC3CCC(C2)N3Cc2nccs2)c2ccc(CCC(=O)O)cc2)cc1` [Cpd 132]: the Ki amounted to 164 nM.

With `CCNC(=O)c1ccc(C=C2CC3CCC(C2)N3Cc2nccs2)cc1` [Cpd 133], the Ki was 581 nM.

`CCNC(=O)c1ccc(C(=C2CC3CCC(C2)N3CCc2ccccc2)c2ccc([N+](=O)[O-])cc2)cc1` [Cpd 134] had a Ki of 7.57 nM.

`CCNC(=O)c1ccc(C(=C2CC3CCC(C2)N3CC=C(C)C)c2ccc([N+](=O)[O-])cc2)cc1` [Cpd 136]: the affinity, expressed as Ki, was 3.03 nM.

With `CCNC(=O)c1ccc(C(=C2CC3CCC(C2)N3CC=C(C)C)c2ccc(CCC(=O)O)cc2)cc1` [Cpd 137], the affinity corresponds to a Ki of 9.74 nM.

For `CCNC(=O)c1ccc(C(=C2CC3CCC(C2)N3Cc2ccoc2)c2ccc(S(N)(=O)=O)cc2)cc1` [Cpd 138], the Ki was determined as 49.5 nM.

Regarding `CCNC(=O)c1ccc(C(=C2CC3CCC(C2)N3Cc2ccsc2)c2ccc(S(N)(=O)=O)cc2)cc1` [Cpd 139], the Ki was 1.54 nM.

Turning to `CCNC(=O)c1ccc(C(=C2CC3CCC(C2)N3Cc2nccs2)c2ccc(S(N)(=O)=O)cc2)cc1` [Cpd 140], the affinity, expressed as Ki, was 217 nM.

For the compound `CCNC(=O)c1ccc(C(=C2CC3CCC(C2)N3Cc2cccs2)c2ccc(S(N)(=O)=O)cc2)cc1` [Cpd 141], the inhibition constant Ki amounted to 1.05 nM.

Compound `CCNC(=O)c1ccc(C(=C2CC3CCC(C2)N3CC=C(C)C)c2ccc(S(N)(=O)=O)cc2)cc1` [Cpd 142] showed a Ki of 4.01 nM.

Turning to `CCNC(=O)c1ccc(C(C#N)=C2CC3CCC(C2)N3Cc2ccoc2)cc1` [Cpd 143], the Ki was determined as 1.03 nM.

`CCNC(=O)c1ccc(C(=C2CC3CCC(C2)N3Cc2ccoc2)c2nnn[nH]2)cc1` [Cpd 144] showed a Ki of 212 nM.

Take `CCNC(=O)c1ccc(C(C#N)=C2CC3CCC(C2)N3)cc1` [Cpd 145]: the Ki worked out at 945 nM.

`CCNC(=O)c1ccc(C(=C2CC3CCC(C2)N3Cc2ccco2)c2nnn[nH]2)cc1` [Cpd 146] yielded an inhibitory constant (Ki) of 15.2 nM.

As to `CCNC(=O)c1ccc(C(=C2CC3CCC(C2)N3Cc2ccsc2)c2nnn[nH]2)cc1` [Cpd 148], the inhibition constant (Ki) was 329 nM.

`CCNC(=O)c1ccc(C(=C2CC3CCC(C2)N3CCc2ccccc2)c2nnn[nH]2)cc1` [Cpd 149] displayed a Ki of 63.7 nM.

Compound `CCNC(=O)c1ccc(C(=C2CC3CCC(C2)N3Cc2nccs2)c2nnn[nH]2)cc1` [Cpd 150] had a Ki of 73.8 nM.

In turn, `CCNC(=O)c1ccc(C(=C2CC3CCC(C2)N3)c2nnn[nH]2)cc1` [Cpd 151] gave a Ki of 1.76 nM.

Take `CCNC(=O)c1ccc(C(=C2CC3CCC(C2)N3Cc2ccoc2)c2cc(C(=O)O)cc([N+](=O)[O-])c2)cc1` [Cpd 152]: the Ki turned out to be 12.2 nM.

For the compound `CCNC(=O)c1ccc(C(=C2CC3CCC(C2)N3Cc2ccoc2)c2cccc(CN)c2)cc1` [Cpd 153], the Ki was found to be 71.1 nM.

For the compound `CCNC(=O)c1ccc(C(=C2CC3CCC(C2)N3Cc2ccccn2)c2cc(C(=O)O)cc([N+](=O)[O-])c2)cc1` [Cpd 154], the affinity corresponds to a Ki of 91.3 nM.

`CCNC(=O)c1ccc(C(=C2CC3CCC(C2)N3CC=C(C)C)c2cc(C(=O)O)cc([N+](=O)[O-])c2)cc1` [Cpd 155] returned a Ki of 74.3 nM.

`CCNC(=O)c1ccc(C(=C2CC3CCC(C2)N3CC=C(C)C)c2cccc(CN)c2)cc1` [Cpd 156]: the affinity, expressed as Ki, was 5450 nM.

`CCNC(=O)c1ccc(C(=C2CC3CCC(C2)N3CCc2ccccc2)c2cc(C(=O)O)cc([N+](=O)[O-])c2)cc1` [Cpd 157]: the affinity, expressed as Ki, was 8.57 nM.

`CCNC(=O)c1ccc(C(=C2CC3CCC(C2)N3CCc2ccccc2)c2cccc(CN)c2)cc1` [Cpd 158]: the Ki is 12 nM.

As for `CCNC(=O)c1ccc(C(=C2CC3CCC(C2)N3Cc2nccs2)c2cc(C(=O)O)cc([N+](=O)[O-])c2)cc1` [Cpd 159], the affinity corresponds to a Ki of 13.5 nM.

Consider `CCNC(=O)c1ccc(C(=C2CC3CCC(C2)N3Cc2nccs2)c2cccc(CN)c2)cc1` [Cpd 160], for which the Ki came out at 7230 nM.

For `CCNC(=O)c1ccc(C(=C2CC3CCC(C2)N3Cc2ccsc2)c2cc(C(=O)O)cc([N+](=O)[O-])c2)cc1` [Cpd 161], the Ki was 10000 nM.

With `CCNC(=O)c1ccc(C(=C2CC3CCC(C2)N3Cc2ccsc2)c2cccc(CN)c2)cc1` [Cpd 162], the Ki came to 849 nM.

As for `CCNC(=O)c1ccc(C(=C2CC3CCC(C2)N3CC=C(C)C)c2cccc(-c3nnn[nH]3)c2)cc1` [Cpd 163], the Ki was determined as 49.3 nM.

Take `CCNC(=O)c1ccc(C(=C2CC3CCC(C2)N3Cc2ccco2)c2cccc(-c3nnn[nH]3)c2)cc1` [Cpd 164, N-ethyl-4{(8-furan-2-ylmethyl-8-aza-bicyclo[3.2.1]oct-3-ylidene)-[3-(1H-tetrazol-5-yl)-phenyl]-methyl}-benzamide]: the Ki amounted to 2.32 nM.

Compound `CCNC(=O)c1ccc(C(=C2CC3CCC(C2)N3Cc2ccccn2)c2cccc(-c3nnn[nH]3)c2)cc1` [Cpd 165] registered a Ki of 54.1 nM.

Compound `CCNC(=O)c1ccc(C(=C2CC3CCC(C2)N3CCc2ccccc2)c2cccc(-c3nnn[nH]3)c2)cc1` [Cpd 166] gave a Ki of 50.3 nM.

For `CCNC(=O)c1ccc(C(=C2CC3CCC(C2)N3Cc2nccs2)c2cccc(-c3nnn[nH]3)c2)cc1` [Cpd 167], the Ki amounted to 5.35 nM.

`CCNC(=O)c1ccc(C(=C2CC3CCC(C2)N3Cc2cccs2)c2cccc(-c3nnn[nH]3)c2)cc1` [Cpd 168] showed a Ki of 395 nM.

Compound `CCNC(=O)c1ccc(C(=C2CC3CCC(C2)N3Cc2ccsc2)c2cccc(-c3nnn[nH]3)c2)cc1` [Cpd 169] yielded a Ki of 14.2 nM.
